The results in this text go back to patent US7662412B2, “Traditional Chinese medicine composition to treat rheumatoid arthritis and preparation method thereof” (priority 2005, dated 2010).

The test system of one experiment is interleukin-1 (IL-1). Kind of experiment: IL-1 activity of LPS-induced peritoneal macrophages of adjuvant arthritis rats (thymocyte bioassay). The class given is in vivo, rat. Particulars: AA rats, 5 mg; 570 nm; model group 0.87 ± 0.03. As to the method:
Fizzer complete adjuvant (from Sigma Co.) was emulsified and injected subcutaneously and sterilely 0.1 ml into the right meta voix pedis of each rat (♂, 160±20 g) to establish a model of adjuvant-induced arthritis.
Preparation of peritoneal macrophage: Execute rats at 25th days after injecting complete adjuvant, then rapidly inject proper amount of Hank's solution into the belly of them, and rub their abdominal wall several times before collecting peritoneal fluid. Wash it with Hank's solution containing 5% calf serum twice, then prepare 1×10^6/mL cell suspension with wholly swelling RPMI1640. Transfer into a culture plate with 24 wells, 1 ml each well. Incubate them in a 5% CO2 incubator overnight at a temperature of 37° C., abandon the supernatant fluid, wash with pre-warmed Hank's solution containing 5% calf serum at 37° C. twice, and remove un-adherent cell. The residue was peritoneal macrophage.
2. IL-1 induction: Add 10 μg/mL lipopolysaccharide (LPS) to the above culture plate with 24 wells, then incubate for 24 hours, centrifuge (2000 rpm, 5 min), collect the […], and filter with micropore filter. This solution was the IL-1 sample to be detected. 3. […]

Experiment [1] deals with DTH T cell subsets (L3T4+, Lyt-2+). Kind of experiment: DTH T cell subsets of mouse (DNFB, splenic lymphocytes, immunofluorescence). Particulars: 5 mg.

Regarding `C[C@]12C=CC(=O)C=C1CC[C@@H]1[C@@H]2C(=O)C[C@@]2(C)[C@H]1CC[C@]2(O)C(=O)CO` [Prednisone], the “OD Value (IL-1 activity)” value in the experiment on interleukin-1 (IL-1) is reported as 0.34 ± 0.02. In experiment [1], the “Cells number L3T4^+” value turned out to be 59.6 ± 7.5%, the “Cells number Lyt-2^+” value came to 56.2 ± 3.8 % and the “L3T4^+/Lyt-2^+” value came out at 1.21 ± 0.14.
